By inhibition is commonly meant the drop in the measured response relative to a control, in per cent. A word on the IC50: it is the concentration that gives 50% inhibition.

Data set [1] deals with T1, N-terminal Xaa-Pro-Lys N-methyltransferase 1 (Homo sapiens) (UniProt Q9BV86).
T1 sequence (whole entry): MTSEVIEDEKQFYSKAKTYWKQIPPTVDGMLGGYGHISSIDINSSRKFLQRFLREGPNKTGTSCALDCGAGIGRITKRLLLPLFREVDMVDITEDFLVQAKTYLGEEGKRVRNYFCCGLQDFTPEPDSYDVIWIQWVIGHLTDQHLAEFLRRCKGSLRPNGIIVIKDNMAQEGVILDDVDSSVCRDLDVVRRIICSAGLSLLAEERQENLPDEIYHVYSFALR
The data set is described as follows: Inhibition of NTMT1 in human HCT116 cells assessed as decrease in me3-SPK level at 100 uM incubated for 3 days by Western blot analysis relative to control. The data set is classed as cell-based. The following applies: HCT-116, time 3.0 day. For orientation: A western blot detects proteins with antibodies after separation by electrophoresis.

The species entered for data set [2] is Homo sapiens. As to the kind of experiment: Selectivity for recombinant human N-terminal His6-tagged NTMT1 (1 to 222 residues) expressed in Escherichia coli BL21-CodonPlus(DE3)-RIL over human His-tagged G9a (913 to 1193 residues) expressed in Escherichia coli BL21-CodonPlus(DE3)-RIL.
Data set [3] concerns Trypanosoma brucei. The data set is described as follows: Inhibition of Trypanosoma brucei N-terminal His6-tagged PRMT7 expressed in Escherichia coli BL21-CodonPlus(DE3)-RIL at 100 uM using H4-21 peptide as substrate preincubated for 10 mins in presence of SAM followed by substrate addition by SAHH-coupled fluorescence assay relative to control.
The target of data set [4] is T1, N-terminal Xaa-Pro-Lys N-methyltransferase 1 (Homo sapiens). As to the kind of experiment: Inhibition of NTMT1 in human HCT116 cells assessed as decrease in me3-SPK level at 300 uM incubated for 3 days by Western blot analysis relative to control. The data set is classed as cell-based. The following applies: HCT-116, time 3.0 day.
Data set [5] deals with HCT-116. The data set is described as follows: Cytotoxicity against human HCT116 cells assessed as reduction in cell viability up to 1 mM incubated for 24 hrs by resazurin-dye based alamar blue assay. The following applies: hct-116, 24 h.
Data set [6] deals with T1, N-terminal Xaa-Pro-Lys N-methyltransferase 1 (Homo sapiens). As to the kind of experiment: Inhibition of NTMT1 in human HCT116 cells assessed as decrease in me3-RCC1 level at 100 uM incubated for 3 days by Western blot analysis. The data set is classed as cell-based. The following applies: HCT-116, time 3.0 day.
Data set [7] has as its target T2, N-terminal Xaa-Pro-Lys N-methyltransferase 1 (Homo sapiens, UniProt Q9BV86).
T2 sequence (Q9BV86 whole entry): T1 sequence (whole entry)
As to the kind of experiment: Inhibition of NTMT1 in human HCT116 cells assessed as decrease in me3-RCC1 level incubated for 3 days by Western blot analysis. The data set is classed as cell-based, HCT-116.

Data set [8] deals with T1, N-terminal Xaa-Pro-Lys N-methyltransferase 1 (Homo sapiens). The data set is described as follows: Inhibition of NTMT1 in human HT29 cells assessed as decrease in me3-RCC1 level at 100 uM incubated for 3 days by Western blot analysis. The following applies: HT-29, time 3.0 day. The data set is classed as cell-based.
Data set [9] concerns the target T3, Histone-lysine N-methyltransferase EHMT2 (Homo sapiens) (UniProt Q96KQ7).
T3 sequence (whole entry): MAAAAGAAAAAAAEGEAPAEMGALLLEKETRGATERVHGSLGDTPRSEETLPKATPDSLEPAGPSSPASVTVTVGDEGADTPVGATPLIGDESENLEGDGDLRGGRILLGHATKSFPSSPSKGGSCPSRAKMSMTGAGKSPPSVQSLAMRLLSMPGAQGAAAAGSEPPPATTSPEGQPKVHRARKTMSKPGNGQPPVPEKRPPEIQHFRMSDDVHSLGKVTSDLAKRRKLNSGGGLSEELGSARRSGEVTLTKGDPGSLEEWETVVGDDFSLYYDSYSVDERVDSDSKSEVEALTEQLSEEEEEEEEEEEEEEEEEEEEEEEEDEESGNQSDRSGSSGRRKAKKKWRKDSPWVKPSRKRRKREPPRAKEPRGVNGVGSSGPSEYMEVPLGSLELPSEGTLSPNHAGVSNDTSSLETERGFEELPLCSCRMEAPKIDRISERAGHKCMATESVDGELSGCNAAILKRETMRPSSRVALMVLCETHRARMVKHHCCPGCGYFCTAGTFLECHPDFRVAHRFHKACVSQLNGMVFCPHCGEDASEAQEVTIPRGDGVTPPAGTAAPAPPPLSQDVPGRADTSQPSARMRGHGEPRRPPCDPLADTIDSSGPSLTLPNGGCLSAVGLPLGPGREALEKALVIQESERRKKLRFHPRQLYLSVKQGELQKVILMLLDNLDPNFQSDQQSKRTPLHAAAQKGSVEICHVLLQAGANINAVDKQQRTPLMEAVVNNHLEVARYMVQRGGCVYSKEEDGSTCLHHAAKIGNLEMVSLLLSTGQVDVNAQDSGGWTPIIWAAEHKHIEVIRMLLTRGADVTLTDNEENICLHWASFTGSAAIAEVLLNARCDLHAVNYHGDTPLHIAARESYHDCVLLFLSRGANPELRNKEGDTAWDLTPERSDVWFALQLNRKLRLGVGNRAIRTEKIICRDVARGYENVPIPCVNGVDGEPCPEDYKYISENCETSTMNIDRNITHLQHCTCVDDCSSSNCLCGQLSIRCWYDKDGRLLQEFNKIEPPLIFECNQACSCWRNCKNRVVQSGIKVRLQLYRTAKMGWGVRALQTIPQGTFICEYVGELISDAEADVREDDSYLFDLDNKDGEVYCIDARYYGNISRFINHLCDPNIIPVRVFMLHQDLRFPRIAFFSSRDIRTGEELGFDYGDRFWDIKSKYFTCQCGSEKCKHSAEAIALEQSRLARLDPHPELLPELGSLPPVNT
As to the kind of experiment: Inhibition of human His-tagged G9a (913 to 1193 residues) expressed in Escherichia coli BL21-CodonPlus(DE3)-RIL at 100 uM using H3-21 peptide as substrate preincubated for 10 mins in presence of SAM followed by substrate addition by SAHH-coupled fluorescence assay relative to control.

Molecules are shown by their SMILES. The source made the active and inactive calls. No cut-off for these calls is given here.

As for `NCCCC[C@H](NC(=O)[C@@H]1CCCN1C(=O)Cc1cccc2ccccc12)C(=O)Nc1ccccc1C(N)=O`, the inhibition in data set [1] was 61%; in [3] it was under 50%; in [4] it was 90%; in data set [9], under 50%. The Selectivity ratio in data set [2] was over 300. In addition, the Activity result in data set [5] is “Non-Toxic”. In addition, the inhibition result in data set [6] and in [8] was “Active” each time. Also, in data set [7], the IC50 turned out to be 100 µM.
